Results on four compounds are retold here after patent US11406707B2, “STAT3 phosphorylation during graft-versus-host disease” (H. LEE MOFFITT CANCER CENTER AND RESEARCH INSTITUTE, INC., priority 2014, dated 2022).

The test system of one data set is primed T-cells. The data set is described as follows: Secondary alloMLR (3-day restimulation of primed T-cells) proliferation. The class given is cell-based, human. The conditions noted are these: Homo sapiens, T-cell; rapamycin 10 ng/ml; read-out: inhibition of proliferation in comparison to DMSO. The source says: Bulk donor T-cells were allostimulated with cytokine-matured, allogeneic moDCs at a DC:T-cell ratio of 1:30 as previously described (Florida Blood Services) [Betts, B C, et al. (2011) Blood 118:5330-9; Betts, B C, et al. […] Betts, B C, et al. (2011) Blood 118:5340-3]. […] Lower doses of each drug were used in these experiments to mimic expected physiologic concentrations [Siddiquee, K, et al. (2007) Proceedings of the National Academy of Sciences of the United States of America 104:7391-6; Zeiser, R, et al. (2008) Blood 111:453-62], and to better detect potential synergistic activity with the combination of rapamycin and S3I-201. After 5 days of culture at […]-cell proliferation was measured by a colorimetric assay per the manufacturer's instructions (CellTiter 96 Aqueous One Solution Cell Proliferation Assay [MTS]; Promega, Madison, Wis. USA) [Betts, B C, et al. (2011) Blood 118:5330-9; Betts, B C, et al. […] Betts, B C, et al. (2011) Blood 118:5340-3]. Absorbance/optical density (OD) was analyzed at 490 nm. Secondary alloMLR: […] Following priming, the T-cells were then rested and re-cultured with fresh first-party moDCs (DC:T-cell ratio of 1:30). […] After 3 days, T-cell proliferation was measured by a colorimetric assay as described (Promega). T-cells alone and PHA-stimulated T-cells served as negative and positive controls, respectively, for both the primary and secondary alloMLRs.

A further data set deals with T1, STAT3 (Homo sapiens, UniProt P40763).
T1 construct: endogenous in cells; host or cells: primary human T cells from healthy-donor PBMC, allostimulated by monocyte-derived dendritic cells
The data set is described as follows: STAT3 phosphorylation in CD4+ T cells of 5 day allo-MLRs without exogenous cytokine. The class given is cell-based. The conditions noted are these: CAS 285986-31-4 1 μM, 5 day allo-MLR. The protocol:
(§1) No exogenous cytokine was added. DC-allosensitized T cells were harvested on day 5. […] The ratio of CD4^+, pSTAT5^Bright to CD4^+, pSTAT3^+ T cells was calculated by percentage of phosphorylation.

The subject of data set [1] is DC-allosensitized T-cell proliferation. The data set is described as follows: allo-MLR T-cell proliferation (colorimetric MTS assay, stimulation index). The conditions noted are these: CAS 285986-31-4 titration 0-100 μM, day 4. The data set is classed as cell-based, human. The method, then:
Allo-MLRs consisted of T cells stimulated by cytokine-mature moDCs (DC:T-cell ratio 1:30, 1×10^5 T cells per 100 μl medium in a 96-well plate, 37° C.). […] The allogeneic moDC stimulators were matured with a cytokine cocktail and terminally differentiated, eliminating the need for irradiation [Betts, B. C., et al. (2011) Blood 118, 5330-5339]. T-cell proliferation was quantified by a colorimetric assay (CellTiter 96 AQueous One Solution Cell Proliferation Assay [MTS]; Promega, Madison, Wis.) on day 5, per the manufacturer's instructions, with absorbance quantified at 490 nm [Betts, B. C., et al. (2011) Blood 118, 5330-5339]. The stimulation index was calculated by dividing the OD of the allo-MLR by the OD of T cells alone. PHA-stimulated T cells served as a positive control. Identical allo-MLRs were cultured with CAS 285986-31-4, to determine the dose-response effect of STAT5 inhibition on allostimulated T-cell growth. For these initial experiments, the cultures were analyzed on day 4 because of the early rapid T-cell proliferation among the STAT5 inhibitor-treated wells. The stimulation index was determined as described.

A further data set deals with STAT5. Briefly: STAT5 phosphorylation in CD4+ T cells of 5 day allo-MLRs without exogenous cytokine. The conditions noted are these: CAS 285986-31-4 1 μM. The data set is classed as cell-based, human. The method, then: as §1
The next data set concerns Foxp3 TSDR. Briefly: iTreg Foxp3 demethylation assay. The class given is cell-based, human. The conditions noted are these: CAS 285986-31-4 1 μM. An excerpt:
iTreg Foxp3 demethylation assay. […] (2013) J. Immunol. 190, 3180-3188; Miyao, T., et al. (2012) Immunity 36, 262-275]. The degree of Foxp3 TSDR demethylation among iTregs from DMSO-treated allo-MLRs, purified nTregs, and Tconvs served as the controls [[…]., et al. (2013) Blood 122(13):2251-61]. For these experiments, iTregs and nTregs were sorted to select the CD4^+ CD25^+ CD127^- population. PCR products were amplified by using methylation or demethylation specific TSDR forward and reverse primers from bisulphate-treated genomic DNA of sorted natural Tregs. DNA fragments were cloned into a pCR2.1-Topo vector (Life Technologies, Grand Island, N.Y., USA) and verified by DNA sequencing. The following TSDR primers and probes were used for PCR: methylation forward [NT] ID NO:1), reverse [NT] ID NO:2), and hydrolysis probe [NT] (SEQ ID NO:3); and demethylation forward [NT] ID NO:4), reverse [NT] ID NO:5), and hydrolysis probe [NT] ID NO:6). Standards were diluted at concentrations ranging from 2^7 to 2^3 plasmid copies of each methylation or demethylation TSDR. Genomic DNA was isolated by using the DNeasy Blood and Tissue kit (Qiagen, Valencia, Calif., USA) from sorted natural or expanded iTregs. Genomic DNA (200-500 ng) was treated with bisulfite from the EZ DNA Methylation-Gold Kit (Zymo Research, Irvine, Calif., USA). […]

The next data set deals with T cells. Briefly: T-cell viability by Live/Dead staining in treated allo-MLRs. The class given is cell-based, human. The conditions noted are these: CAS 285986-31-4 1 μM. The method, then:
Fluorochrome-conjugated mouse anti-human mAbs included anti-CD3, -CD4, -CD8, -CD25, -CD45RO, -CD107a, -CD127, -Foxp3, -pSTAT3/pY705, -pSTAT5/pY694, -IFN-, and -IL-17A (BD Biosciences, San Jose, Calif. USA; eBioscience; San Diego, Calif., USA; Invitrogen; Carlsbad, Calif., USA). Viability was assessed by Live/Dead staining (Invitrogen). Live events were acquired on FACSCalibur or LSRII (BD Biosciences) flow cytometers (FlowJo software, ver. 7.6.4; TreeStar, Ashland, Oreg., USA). Gates were defined by appropriate isotype controls. Naive T-cell sorting was performed on the FACSVantageDiVa (BD Biosciences). Where indicated, CD4^+ T cells were purified by magnetic-bead negative selection (Miltenyi Biotec, Auburn, Calif., USA).

In another data set the test system is iTregs and Tconvs. The data set is described as follows: iTreg and Tconv expansion from DC-allostimulated naive CD4+ T cells. The data set is classed as cell-based, human. The conditions noted are these: CAS 285986-31-4 1 μM. The method, then:
To evaluate iTreg development, naive CD4^+ cells were isolated from nylon-wool-eluted T cells by magnetic-bead selection (Miltenyi Biotec), based on the positive expression of CD4 and lack of CD45RO, CD25, or both. In addition, CD127 staining of the naive CD4^+ cells was performed after the purification, to ensure depletion of natural Tregs from the cell product. Negligible amounts of CD127^-, CD25^Bright nTregs were observed after magnetic-bead purification. […] The T cells were harvested and surface stained on day 5 for CD3, -4, -25, and -127, followed by fixation and permeabilization (eBioscience), and then intracellular staining for Foxp3 [Liu, W., et al. (2006) J. Exp. Med. 203, 1701-1711; […]., et al. (2006) J. Exp. Med. 203, 1693-1700]. Tregs were characterized by gating on the live cells expressing surface CD3^+, CD4^+, and absence of CD127, followed by expression of Foxp3 and CD25^bright [Liu, W., et al. (2006) J. Exp. Med. 203, 1701-1711; […]., et al. (2006) J. Exp. Med. 203, 1693-1700]. The absolute number of iTregs and Tconv (CD4^+ CD25^-) cells was obtained by timed acquisition. The ratio of iTreg:Tconv was calculated based on the absolute number of each T-cell population.

Another data set relates to TH17 responses. Particulars: neutralization of IL-6, literature; cited from earlier work.
The conditions of data set [2]: literature; cited from earlier work.

T1 sequence (P40763 whole entry): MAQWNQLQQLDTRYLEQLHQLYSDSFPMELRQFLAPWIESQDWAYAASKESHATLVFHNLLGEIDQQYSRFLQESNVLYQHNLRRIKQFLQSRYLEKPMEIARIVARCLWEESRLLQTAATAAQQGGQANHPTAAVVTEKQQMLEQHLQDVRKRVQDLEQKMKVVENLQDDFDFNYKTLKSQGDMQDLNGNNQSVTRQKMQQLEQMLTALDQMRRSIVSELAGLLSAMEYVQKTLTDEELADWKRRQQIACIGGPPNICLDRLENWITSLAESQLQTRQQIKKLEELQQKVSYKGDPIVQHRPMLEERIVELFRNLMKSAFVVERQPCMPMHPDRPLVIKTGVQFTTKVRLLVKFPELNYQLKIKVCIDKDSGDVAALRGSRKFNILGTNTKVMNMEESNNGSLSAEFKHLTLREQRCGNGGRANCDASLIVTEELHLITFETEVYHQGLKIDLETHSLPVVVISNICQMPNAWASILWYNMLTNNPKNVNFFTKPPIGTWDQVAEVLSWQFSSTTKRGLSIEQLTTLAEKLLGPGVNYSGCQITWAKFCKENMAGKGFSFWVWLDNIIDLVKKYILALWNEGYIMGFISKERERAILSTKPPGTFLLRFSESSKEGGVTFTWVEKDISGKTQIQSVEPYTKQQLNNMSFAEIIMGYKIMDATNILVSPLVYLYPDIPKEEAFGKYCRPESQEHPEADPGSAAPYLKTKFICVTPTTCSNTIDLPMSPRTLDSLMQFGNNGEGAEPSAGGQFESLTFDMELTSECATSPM

For the compound `CO[C@H]1C[C@@H]2CC[C@@H](C)[C@@](O)(O2)C(=O)C(=O)N2CCCC[C@H]2C(=O)O[C@H]([C@H](C)C[C@@H]2CC[C@@H](O)[C@H](OC)C2)CC(=O)[C@H](C)/C=C(\C)[C@@H](O)[C@@H](OC)C(=O)[C@H](C)C[C@H](C)/C=C/C=C/C=C/1C` [rapamycin], the inhibition at 0.01 µg/mL with primed T-cells was determined as 69%.

For the compound `O=C(N/N=C/c1coc2ccccc2c1=O)c1cccnc1` [CAS 285986-31-4], the STAT3 signaling entry on STAT3 is reported as “maintained intact”. Also, the “concentration achieving maximum allostimulated T-cell growth” value in data set [1] was 1 µM. Besides, the “ratio of CD4+, pSTAT5Bright to CD4+, pSTAT3+ T cells” value with STAT5 was “significantly decreased”. Besides, in the data set with STAT5 (5 day allo-MLR), the “CD4+, pSTAT5Bright population” value is given as “selectively impaired” and the “overall geometric MFI of CD4+ STAT5 phosphorylation” value is reported as “did not affect”. Also, the “iTreg Foxp3 demethylation” value in the data set on Foxp3 TSDR is given as “significant reduction”. In the data set on T cells, the “toxic effects by viability staining” value was “no toxic effects”. Moreover, in the data set with iTregs and Tconvs, the “allostimulated iTreg expansion” value was “significantly decreased” and the “iTreg:Tconv ratio compared with DMSO or STAT3 inhibitor” value is given as “significant reduction”.

In the case of “tocilizumab: humanised IL-6 receptor-inhibiting monoclonal antibody”, the “reducing TH17 responses or enhancing Treg development” value with TH17 responses is listed as “insufficient”.

“ustekinumab: monoclonal antibody targeting the p40-cytokines”: the “efficacy in refractory GVHD” value in data set [2] was “demonstrated efficacy”.
